According to US9428507B2, “Compounds for the treatment of malaria” (The Broad Institute, Inc., priority 2013, dated 2016):
pEC50: −log10 of the molar value.

The compounds below were run on Dd2 strain of P. falciparum (assay: Activity against the Dd2 strain of P. falciparum (SYBR Green I, 72-h incubation)). Details: Plasmodium falciparum, DD2, 72 h, read-out: EC^50 Dd2.
Assay type: cell-based
Summary of the method: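 SYBR Green I signal (ex 485, em 530 nm) measured growth, read after 24 h dark staining in saponin/Triton lysis buffer. Before that, compound-exposed Dd2 cultures (1% parasitemia, 1.0% hematocrit, 0.125% DMSO) grew 72 h at 37° C in low-oxygen gas. Background control: 20 μM mefloquine.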
Work on `COCOC[C@H]1c2[nH]c3cc(OC)ccc3c2C2(CCN(C(=O)Nc3ccccc3F)CC2)CN1C(C)=O` [Compound 67, (R)-2′-acetyl-N-(2-fluorophenyl)-7′-methoxy-1′-((methoxymethoxy)methyl)-1′,2′,3′,9′-tetrahydrospiro [piperidine-4,4′-pyrido[3,4-b]indole]-1-carboxamide] yielded a pEC50 of 5.52.
For `COc1ccc2c3c([nH]c2c1)[C@H](CO)N(C(C)=O)CC31CCN(C(=O)Nc2ccccn2)CC1` [Compound 68, (R)-2′-acety1-1′-(hydroxymethyl)-7′-methoxy-N-(pyridin-2-yl)-1′,2′,3′,9′-tetrahydrospiro[piperidine-4,4′-pyrido[3,4-b]indole]-1-carboxamide], the pEC50 was 5.64 to 6.04.
`COC[C@H]1c2[nH]c3cc(OC)ccc3c2C2(CCN(C(=O)Nc3ccccc3F)CC2)CN1C(C)=O` [Compound 69, (R)-2′-acetyl-N-(2-fluorophenyl)-7′-methoxy-1′-(methoxymethyl)-1′,2′,3′,9′-tetrahydrospiro [piperidine-4,4′-pyrido[3,4-b]indole]-1-carboxamide] showed a pEC50 of 5.04.
Work on `COc1ccc2c3c([nH]c2c1)[C@H](CO)N(CCCc1ccccc1)CC31CCN(C(=O)Nc2ccccc2F)CC1` [Compound 71, (R)-N-(2-fluorophenyl)-1′-(hydroxymethyl)-7′-methoxy-2′-(3-phenylpropy1)-1′,2′,3′,9′-tetrahydrospiro[piperidine-4,4′-pyrido[3,4-b]indole]-1-carboxamide] yielded a pEC50 of 5.14.
Compound `COc1ccc2c3c([nH]c2c1)[C@H](CCO)N(C(C)=O)CC31CCN(C(=O)Nc2ccccc2F)CC1` [Compound 73, (S)-2′-acetyl-N-(2-fluorophenyl)-1′-(2-hydroxyethyl)-7′-methoxy-1′,2′,3′,9′-tetrahydrospiro [piperidine-4,4′-pyrido[3,4-b]indole]-1-carboxamide] has a pEC50 of 6.33.
Compound `COc1ccc2c3c([nH]c2c1)[C@H](CC(F)(F)F)N(C(C)=O)CC31CCN(C(=O)Nc2ccccc2F)CC1` [Compound 74, (S)-2′-acetyl-N-(2-fluorophenyl)-7′-methoxy-1′-(2,2,2-trifluoroethyl)-1′,2′,3′,9′-tetrahydrospiro[piperidine-4,4′-pyrido[3,4-b]indole]-1-carboxamide] has a pEC50 of 6.89 to 7.52.
Compound `COc1ccc2c3c([nH]c2c1)[C@H](CO)N(C(C)=O)CC31CCN(c2nc3ccccc3o2)CC1` [Compound 77, (R)-1-(1-(benzo[d]oxazol-2-yl)-1′-(hydroxymethyl)-7′-methoxyspiro [piperidine-4,4′-pyrido[3,4-b]indol]-2′(1′H,3′H,9′H)-yl)ethanone] has a pEC50 of 5.07.
`COc1ccc2c3c([nH]c2c1)[C@H](CO)N(Cc1cccc(F)c1)CC31CCN(Cc2ccccn2)CC1` [Compound 78, (R)-(2′-(3-fluorobenzyl)-7′-methoxy-1-(pyridin-2-ylmethyl)-1′,2′,3′,9′-tetrahydrospiro [piperidine-4,4′-pyrido[3,4-b]indol]-1′-yl)methanol] gave a pEC50 of 6.04.
For `COc1ccc2c3c(n(C)c2c1)[C@H](CO)NCC31CCN(Cc2ccc(-c3ccccn3)cc2)CC1` [Compound 79, (R)-(7′-methoxy-9′-methyl-1-(4-(pyridin-2-yl)benzyl)-1′,2′,3′,9′-tetrahydrospiro [piperidine-4,4′-pyrido[3,4-b]indol]-1′-yl)methanol], the pEC50 was 6.87.
In the case of `COc1ccc2c3c([nH]c2c1)[C@H](CO)N(C(=O)Nc1ccc(F)cc1)CC31CCN(S(=O)(=O)c2ccccc2)CC1` [Compound 80, (R)-N-(4-fluorophenyl)-1′-(hydroxymethyl)-7′-methoxy-1-(phenylsulfonyl)-3′,9′-dihydrospiro[piperidine-4,4′-pyrido[3,4-b]indole]-2′(1′H)-carboxamide], the pEC50 was 5.89.
`COc1ccc2c3c(n(C)c2c1)[C@H](CO)N(Cc1ccc2c(c1)OCO2)CC31CN(C(=O)c2ccc3c(c2)OCO3)C1` [Compound 81, (R)-benzo[d][1,3] dioxol-5-y1(2′-(benzo[d][1,3]dioxol-5-ylmethyl)-1′-(hydroxymethyl)-7′-methoxy-9′-methyl-1′,2′,3′,9′-tetrahydrospiro[azetidine-3,4′-pyrido[3,4-b]indol]-1-yl)methanone] showed a pEC50 of 6.89.
Compound `COc1ccc2c3c([nH]c2c1)[C@@H](CO)N(Cc1cccc(F)c1)CC31CCN(Cc2ccccn2)CC1` [Compound 82, (S)-(2′-(3-fluorobenzyl)-7′-methoxy-1-(pyridin-2-ylmethyl)-1′,2′,3′,9′-tetrahydrospiro [piperidine-4,4′-pyrido[3,4-b]indol]-1′-yl)methanol] has a pEC50 of 5.82.
Compound `COc1ccc2c3c(n(C)c2c1)[C@@H](CO)N(Cc1ccccc1OC)CC31CCN(CC2CC2)CC1` [Compound 83, (S)-(1-(cyclopropylmethyl)-7′-methoxy-2′-(2-methoxybenzyl)-9'-methyl-1′,2′,3′,9′-tetrahydrospiro [piperidine-4,4′-pyrido[3,4-b]indol]-1′-yl) methanol] has a pEC50 of 6.28.
`COc1cccc(S(=O)(=O)N2CCC3(CC2)CN[C@H](CO)c2[nH]c4cc(OC)ccc4c23)c1` [Compound 84, (S)-(7′-methoxy-1-((3-methoxyphenyl)sulfonyl)-1′,2′,3′,9′-tetrahydrospiro [piperidine-4,4′-pyrido[3,4-b]indol]-1′-yl)methanol] was tested, and the pEC50 was 5.60.
Compound `COc1ccc2c3c(n(C)c2c1)[C@H](CO)N(CC1CCCCC1)CC31CCN(Cc2nccs2)CC1` [Compound 85, (R)-(2′-(cyclohexylmethyl)-7′-methoxy-9′-methyl-1-(thiazol-2-ylmethyl)-1′,2′,3′,9′-tetrahydrospiro [piperidine-4,4′-pyrido[3,4-b]indol]-1′-yl)methanol] has a pEC50 of 5.79.
`COc1ccc(NC(=O)N2CCC3(CC2)CN(C(=O)C2CCC2)[C@H](CO)c2c3c3ccc(OC)cc3n2C)cc1` [Compound 86, (S)-2′-(cyclobutanecarbonyl)-1′-(hydroxymethyl)-7′-methoxy-N-(4-methoxyphenyl)-9′-methyl-1′,2′,3′,9′-tetrahydrospiro [piperidine-4,4′-pyrido[3,4-b]indole]-1-carboxamide] showed a pEC50 of 7.02.
`COc1ccc2c3c([nH]c2c1)[C@H](CO)N(Cc1ccc(Cl)cc1)CC31CCN(Cc2nccs2)CC1` [Compound 87, (R)-(2′-(4-chlorobenzyl)-7′-methoxy-1-(thiazol-2-ylmethyl)-1′,2′,3′,9′-tetrahydrospiro [piperidine-4,4′-pyrido[3,4-b]indol]-1′-yl)methanol] was tested, and the pEC50 was 7.11.
Work on `COc1ccc2c3c([nH]c2c1)[C@H](CO)N(C(=O)CN(C)C)CC31CCN(CC2CCCCC2)CC1` [Compound 89, (R)-1-(1-(cyclohexylmethyl)-1′-(hydroxymethyl)-7′-methoxyspiro [piperidine-4,4′-pyrido[3,4-b]indol]-2′(1′ H,3′H,9′H)-yl)-2-(dimethylamino)ethanone] yielded a pEC50 of 6.36.
`COc1ccc2c3c(n(C)c2c1)[C@@H](CO)N(C(=O)CN(C)C)CC31CCN(Cc2cccnc2)CC1` [Compound 90, (S)-2-(dimethylamino)-1-(1′-(hydroxymethyl)-7′-methoxy-9′-methyl-1-(pyridin-3-ylmethyl)spiro [piperidine-4,4′-pyrido[3,4-b]indol]-2′(1′H,3′H,9′H)-yl)ethanone] was tested, and the pEC50 was 5.58.
`COc1ccc2c3c(n(C)c2c1)[C@H](CO)NCC31CCN(CC2CCCC2)CC1` [Compound 91, (R)-(1-(cyclopentylmethyl)-7′-methoxy-9′-methyl-1′,2′,3′,9′-tetrahydrospiro[piperidine-4,4′-pyrido[3,4-b]indol]-1′-yl)methanol] gave a pEC50 of 6.32.
`CCCN1CCC2(CC1)CN(Cc1ccccc1OC)[C@H](CO)c1c2c2ccc(OC)cc2n1C` [Compound 92, (S)-(7′-methoxy-2′-(2-methoxybenzyl)-9′-methyl-1-propyl-1′,2′,3′,9′-tetrahydrospiro [piperidine-4,4′-pyrido[3,4-b]indol]-1′-yl) methanol] showed a pEC50 of 6.17.
For `COc1ccc2c3c(n(C)c2c1)[C@@H](CO)N(C(=O)C1CC1)CC31CN(C(=O)Nc2cccc(F)c2)C1` [Compound 93, (S)-2′-(cyclopropanecarbonyl)-N-(3-fluorophenyl)-1′-(hydroxymethyl)-7′-methoxy-9′-methyl-1′,2′,3′,9′-tetrahydrospiro [azetidine-3,4′-pyrido[3,4-b]indole]-1-carboxamide], the pEC50 was 6.71.
With `COc1ccc2c3c([nH]c2c1)[C@@H](CO)N(Cc1ccccc1)CC31CCN(Cc2cncnc2)CC1` [Compound 94, (S)-(2′-benzyl-7′-methoxy-1-(pyrimidin-5-ylmethyl)-1′,2′,3′,9′-tetrahydrospiro [piperidine-4,4′-pyrido[3,4-b]indol]-1′-yl) methanol] the pEC50 was 6.03.
Compound `COc1ccc2c3c(n(C)c2c1)[C@H](CO)N(CC1CC1)CC31CN(C(=O)c2ccc3c(c2)OCO3)C1` [Compound 95, (R)-benzo[d] [1,3]dioxol-5-yl(2′-(cyclopropylmethyl)-1′-(hydroxymethyl)-7′-methoxy-9′-methyl-1′,2′,3′,9′-tetrahydrospiro [azetidine-3,4′-pyrido[3,4-b]indol]-1-yl)methanone] has a pEC50 of 5.90.
With `COc1ccc2c3c(n(C)c2c1)[C@H](CO)N(C(=O)Nc1ccc(F)cc1)CC31CCN(C)CC1` [Compound 96, (R)-N-(4-fluorophenyl)-1′-(hydroxymethyl)-7′-methoxy-1,9′-dimethyl-3′,9′-dihydrospiro[piperidine-4,4′-pyrido[3,4-b]indole]-2′(1′H)-carboxamide] the pEC50 was 5.54.
`COc1ccc(CN2CC3(C2)CN(C(=O)CN(C)C)[C@H](CO)c2[nH]c4cc(OC)ccc4c23)cc1` [Compound 97, (S)-2-(dimethylamino)-1-(1′-(hydroxymethyl)-7′-methoxy-1-(4-methoxybenzyl)spiro[azetidine-3,4′-pyrido[3,4-b]indol]-2′(1′H,3′H,9′H)-yl)ethanone] showed a pEC50 of 5.78.

Same assay, conditions: read-out: EC^50 Dd2
In the case of `COc1ccc2c3c(n(C)c2c1)[C@H](CO)N(Cc1ccc(Cl)cc1)CC31CCN(CC2CC2)CC1` [Compound 88, (R)-(2′-(4-chlorobenzyl)-1-(cyclopropylmethyl)-7′-methoxy-9′-methyl-1′,2′,3′,9′-tetrahydrospiro [piperidine-4,4′-pyrido[3,4-b]indol]-1′-yl)methanol], the pEC50 was 5.93.
